Values of other authors, collected in US20100144855A1, “APPLICATION OF SEDOISOPROSAN FOR PREPARATION OF MEDICINE FOR TREATMENT OF HUMAN HBeAg POSITIVE CHRONIC HEPATITIS B” (priority 2008, published 2010).

Tests used:
[1] = animal experiments; cited from earlier work
lymphocytes = details: sedoisoprosan associated with ConA and LPS, in vitro; cited from earlier work
HBsAg and HBeAg = details: animal experiments; cited from earlier work
[2] = system: duck hepatitis B virus (DHBV); details: cited from earlier work

CC1(C)OC2C3COC(CO)(O3)C(O)C2O1 (stereo not shown) [sedoisoprosan, isopropylidene sedoheptulosan]
activity of ACP and TNE [1]: enhance
immune system [1]: regulate
mitogenic activity of ConA and LPS (lymphocytes): enhance
transformation of lymphocytes (lymphocytes): promote
secretion of HBsAg and HBeAg (HBsAg and HBeAg): inhibit
DHBV-DNA level ([2]; animal experiments): reduce
serum DHBV-DNA levels ([2]; ducks infected with hepatitis B virus, intraperitoneal 200 mg/kg or 100 mg/kg twice a day for 14 days, seventh and fourteenth day): obviously decreased
